Data published in paper PMC6685981, “Avenanthramide A triggers potent ROS-mediated anti-tumor effects in colorectal cancer by directly targeting DDX3” (Cell Death & Disease, 2019).

Biological target: T1, DDX3 (Homo sapiens, UniProt O00571)
T1 construct: gene DDX3X; full length, His-tagged DDX3
Experiment: SPR (Biacore T200) with immobilized purified His-DDX3; also malachite green ATPase inhibition at […]
Format: binding

T1 sequence (O00571 whole entry): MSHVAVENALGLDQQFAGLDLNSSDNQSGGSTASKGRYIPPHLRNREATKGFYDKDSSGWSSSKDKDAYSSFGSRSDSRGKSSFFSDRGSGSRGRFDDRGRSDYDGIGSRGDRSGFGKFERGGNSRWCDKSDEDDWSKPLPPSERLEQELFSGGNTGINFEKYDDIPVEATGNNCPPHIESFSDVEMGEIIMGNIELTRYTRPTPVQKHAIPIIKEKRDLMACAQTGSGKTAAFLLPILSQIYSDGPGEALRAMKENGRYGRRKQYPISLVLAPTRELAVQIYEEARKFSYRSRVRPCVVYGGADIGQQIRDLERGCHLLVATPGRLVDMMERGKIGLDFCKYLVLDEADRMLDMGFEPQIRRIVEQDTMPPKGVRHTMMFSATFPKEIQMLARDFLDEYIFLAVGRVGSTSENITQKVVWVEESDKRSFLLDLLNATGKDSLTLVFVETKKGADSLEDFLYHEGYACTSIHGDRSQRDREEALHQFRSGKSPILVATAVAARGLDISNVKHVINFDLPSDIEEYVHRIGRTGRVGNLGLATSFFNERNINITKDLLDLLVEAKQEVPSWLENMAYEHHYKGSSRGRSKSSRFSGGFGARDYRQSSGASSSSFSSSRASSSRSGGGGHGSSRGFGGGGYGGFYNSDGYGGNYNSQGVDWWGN

Kd: 8.8 µM
SMILES: O=C(/C=C/c1ccc(O)cc1)Nc1ccc(O)cc1C(=O)O [AVN A, Avenanthramide A]
